# In PubChem BioAssay AID463204 (Broad Institute, 2010):
# Activity calls are given as the source filed them.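 How the source made its calls: active means AC50 no more than ten times the top concentration tested, that is within one log above it; inconclusive means flat curve fit with activity between 30% and 70%, or invalid poor fit; inactive means AC50 beyond ten times the top tested dose.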
# Test system: S. cerevisiae Mot1-301 ts growth rescue, BacTiter-Glo ATP luminescence
# Experiment: restored Mot1-301 yeast growth at 38.5C – whole organism, S. cerevisiae, Mot1-301 ts mutant, luminescence, dose retest, SUMOylation pathway inhibitor project, confirmation (AID 463204);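 further: growth at restrictive 38.5 degrees C of Mot1-301 OY566 strain; actives raise luminescence by restoring growth of the ts mutant at high temperature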
row,Structure (SMILES),AC50
1,COc1cccc(NC(=S)NC(=O)c2cncc(Br)c2)c1,> 42 µM (inactive)
2,COc1ccccc1CNC(=O)C1CCC(CNS(=O)(=O)c2ccc(C)cc2)CC1 (stereo not drawn),> 42 µM (inactive)
3,COC(=O)c1sccc1NC(=S)N1CCCCC1,> 42 µM (inactive)
4,CCOc1ccc(NC(=O)CNc2ccc(C)cc2Cl)cc1,> 42 µM (inactive)
5,CCCn1c(=O)c2ccccc2n2c(SCC(=O)N3CCc4ccccc4C3)nnc12,> 42 µM (inactive)
6,CCCCNC(=O)C1C2C=CC3(CN(Cc4ccc(C)cc4)C(=O)C13)O2 (stereo not drawn),> 42 µM (inactive)
7,CCCc1cc(=S)n2c([nH]c3ccccc32)c1C#N,> 42 µM (inactive)
8,Oc1cccc2ccc(/C=C/c3ccccc3Br)nc12,> 42 µM (inactive)
9,CCOc1ccccc1CN1CCN(Cc2ccon2)CC1CCO (stereo not drawn),> 42 µM (inactive)
10,Cc1nc2nc[nH]n2c(=O)c1NS(=O)(=O)c1ccc([N+](=O)[O-])cc1,> 42 µM (inactive)
11,C/C(CC(=O)NC1CCCCC1)=N\NC(=O)Cc1ccc(-c2ccccc2)cc1,> 42 µM (inactive)
12,COC(=O)c1cc(Cl)c(NC(=O)C(C)C)cc1OC,> 42 µM (inactive)
13,O=C(COC(=O)c1cccc(Br)c1)Nc1ccc2[nH]c(=O)[nH]c2c1,> 42 µM (inactive)
14,COCCn1c(SCC(=O)Nc2nc3ccccc3s2)nnc1-c1ccoc1C,> 42 µM (inactive)
15,COc1ccc(/C=C(\C#N)C(=O)c2cccn2C)cc1,> 42 µM (inactive)
16,CCC(C)(C)NC(=O)C(c1ccc(C)cc1)N(CC1CCCO1)C(=O)CNC(=O)c1cccs1 (stereo not drawn),> 42 µM (inactive)
17,S=C(c1ccc(N2CCOCC2)cc1)N1CCCCC1,> 42 µM (inactive)
18,COCCNC(=O)C(=O)NCC1OCCN1C(=O)c1ccc(Cl)cc1 (stereo not drawn),> 42 µM (inactive)
19,O=C(O)c1cc(Oc2ccc(C(F)(F)F)cc2Cl)ccc1[N+](=O)[O-],> 42 µM (inactive)
20,O=C(CCCNC(=O)/C(=C/c1ccccc1F)NC(=O)c1ccccc1)OCc1ccccc1,> 42 µM (inactive)
21,CS(=O)(=O)NCc1ccc(C(=O)NC2CCCCC2)cc1,> 42 µM (inactive)
22,CSc1nnc2c3cc(C)ccc3n(Cc3ccccc3)c2n1,> 42 µM (inactive)
23,O=[N+]([O-])c1ccccc1CN1CC=C(c2ccc(F)cc2)CC1,> 42 µM (inactive)
24,COc1ccc(/C=C2\SC(=S)N(CCCC(=O)Nc3cc(C)on3)C2=O)cc1OC,> 42 µM (inactive)
25,CCCCC1=CC2=CC(=O)C(C)(OC(=O)CC)C(=O)C2=CN1CCc1ccc(Br)cc1 (stereo not drawn),> 42 µM (inactive)
26,c1ccc(C(c2ccccc2)N2CCN(C(c3ccccn3)c3nnnn3C3CCCC3)CC2)cc1 (stereo not drawn),> 42 µM (inactive)

row,Structure (SMILES),AC50
1,COc1ccccc1CNC(=O)C(C)Sc1ccc(C)cc1 (stereo not drawn),> 42 µM (inactive)
2,O=C(Nc1ccc(OC(F)(F)F)cc1)c1ccc2ccccc2n1,> 42 µM (inactive)
3,C=CCNC(=O)c1onc(CSc2cccc(C)c2)c1C(=O)O,> 42 µM (inactive)
4,O=C(CSc1nc(O)cc(=O)n1-c1ccccc1)NC1CCCCC1,> 42 µM (inactive)
5,COc1ccc2c(C(=O)CN3CC(C)OC(C)C3)c[nH]c2c1 (stereo not drawn),> 42 µM (inactive)
6,O=C(C[n+]1ccc(C(=O)N/N=C/c2ccc(Cl)cc2Cl)cc1)c1ccccc1,> 42 µM (inactive)
7,COc1ccc(CN(CC(=O)NCc2ccco2)C(=O)CCC(=O)Nc2nccs2)cc1,> 42 µM (inactive)
8,O=c1c2ccccc2nc(SCc2nnc(-c3ccccc3)o2)n1-c1ccc(F)cc1F,> 42 µM (inactive)
9,COc1ccc(NC(=O)CCCc2ccccc2)cc1OC,> 42 µM (inactive)
10,Clc1ccccc1-c1ccc2ncnc(NCc3cccs3)c2c1,37 µM
11,Clc1ccc(CN(Cc2ccccc2)C(c2cccs2)c2nnnn2C2CCCC2)cc1 (stereo not drawn),> 42 µM (inactive)
12,O=c1[nH]cnc2cc(Cl)ccc12,> 21 µM (inactive)
13,CS(=O)(=O)N(CC(=O)NCCSCc1ccccc1)c1ccc2c(c1)OCO2,> 42 µM (inactive)
14,C=CCN1C(=O)/C(=C2/Sc3ccc(OC)cc3N2C)SC1=Nc1ccccc1,> 42 µM (inactive)
15,C=CSc1sc(Cl)c(N(C)C)c1[N+](=O)[O-],> 42 µM (inactive)
16,Cc1ccc(N(CC(=O)NCCc2ccc(Cl)cc2)S(=O)(=O)c2c(C)noc2C)cc1,> 42 µM (inactive)
17,CC(C)c1nc2n[nH]c(N)c2c2c1CCC2,> 42 µM (inactive)
18,COc1ccc(C(=O)COc2ccc3ccc(=O)oc3c2)cc1,> 42 µM (inactive)
19,NC(=O)CN1CCOCCN(CC(N)=O)CCOCC1,> 42 µM (inactive)
20,Cc1c(NC(=O)c2cc(-c3ccccc3O)on2)c(=O)n(-c2ccccc2)n1C,> 42 µM (inactive)
21,O=c1cc(C(F)(F)F)c2sc(N3CCCCC3)nc2[nH]1,> 42 µM (inactive)
22,CSc1ccc(Cl)c(C(=O)Nc2ccc(N3CCOCC3)cc2)c1,> 42 µM (inactive)
23,Cc1ccccc1C(=O)/C=C1\NC(=O)CS1,> 21 µM (inactive)
24,Cc1cc(C)n(C(=O)c2ccccc2[N+](=O)[O-])n1,> 42 µM (inactive)
25,CCOC(=O)c1[nH]c2ccc(F)cc2c1NC(=O)CCN1CCOCC1,> 42 µM (inactive)
26,CCNc1ccccc(C(=O)/C=C/c2ccc3c(c2)OCO3)c1=O,> 42 µM (inactive)

row,Structure (SMILES),AC50
1,CCn1cc(C(=O)NCc2ccccn2)c(=O)c2cc(F)c(N3CCN(C)CC3)cc21,> 42 µM (inactive)
2,CC(C)(C)n1nnnc1C(c1ccc(Cl)cc1)N(Cc1cccnc1)Cc1ccco1 (stereo not drawn),7.98 µM
3,CC1CCN(S(=O)(=O)c2ccc(NC(=O)c3cccs3)cc2)CC1,> 42 µM (inactive)
4,COc1ccc(NC(=S)NC(=O)C2CCC2)cc1,> 42 µM (inactive)
5,CCN1CCCC1CN(Cc1cc2ccc(C)cc2[nH]c1=O)C(=S)Nc1ccccc1C(=O)OC (stereo not drawn),> 42 µM (inactive)
6,Cc1ccc(S(=O)(=O)N2CCCC2C(=O)NCCc2ccccc2)cc1 (stereo not drawn),> 42 µM (inactive)
7,O=C(NNC(=O)c1ccccc1O)c1ccco1,> 42 µM (inactive)
8,Cc1nc2c(-c3ccc(F)cc3)cnn2c2c1CCC2,> 42 µM (inactive)
9,COc1ccc(-n2c(-c3ccccc3)nc3ccccc3c2=O)cc1,> 42 µM (inactive)
10,CC1=C(C#N)S(=O)(=O)C(C#N)C(c2ccccc2)C1 (stereo not drawn),> 42 µM (inactive)
11,CSc1cccc(NC(=S)N2CCCN(Cc3ccccc3F)C2)c1,> 42 µM (inactive)
12,CNC(=O)COC(=O)c1cc(-c2ccco2)nc2ccccc12,> 42 µM (inactive)
13,c1ccc2nc3c(nc2c1)OCC1CCCCN31 (stereo not drawn),> 42 µM (inactive)
14,N#Cc1c(-c2ccco2)cc(-c2cccnc2)nc1N,> 42 µM (inactive)
15,COC(CNC(=O)c1cn(C)c2ccc(S(=O)(=O)N3CCOCC3)cc2c1=O)OC,> 42 µM (inactive)
16,CC(C)[N+]1(C)[C@@H]2CC[C@@H]1CC(OC(=O)C(CO)c1ccccc1)C2 (stereo partly drawn),> 42 µM (inactive)
17,O=C1c2cccc3c(N4CCCCC4)ccc(c23)C(=O)N1CCO,> 42 µM (inactive)
18,O=C(CSc1nnc(-c2ccc(Br)cc2)o1)Nc1cccc2ccccc12,> 42 µM (inactive)
19,CC(=O)N/C(=C\c1ccccc1)C(=O)OCC(=O)c1ccccc1,> 42 µM (inactive)
20,COC(=O)c1cc2occc2n1Cc1nc(-c2ccccc2C)oc1C,> 42 µM (inactive)
21,Cn1cc(C(=O)N2CCCC(Nc3ccc(F)cc3)C2)c2ccccc21 (stereo not drawn),> 42 µM (inactive)
22,O=C(Nc1ccccn1)c1ccc(CN(c2ccccc2)S(=O)(=O)c2ccccc2)cc1,> 42 µM (inactive)
23,O=C(NC(=S)NNC(=O)c1ccccc1O)c1cccc([N+](=O)[O-])c1,> 42 µM (inactive)
24,COc1ccc(N2C(=O)CSC23CCCCC3)cc1,> 42 µM (inactive)
25,O=C1OC(Cc2ccccn2)C(O)=C1C1=NCCCN1 (stereo not drawn),> 42 µM (inactive)
26,Cc1noc(C)c1Cc1ccc(O)cc1,> 42 µM (inactive)

row,Structure (SMILES),AC50
1,CCOc1ccc(NC(=O)C2CC(=O)N3CCCN=C3S2)cc1 (stereo not drawn),> 42 µM (inactive)
2,CN(C)C1(c2nnnn2-c2ccc(Cl)cc2)CCCCC1,27.9 µM
3,CCOC(=O)C1=Nc2ccccc2C1=[N+]=[N-],36.7 µM
4,O=C(NCc1nc(-c2ccccc2)no1)c1cccs1,> 42 µM (inactive)
5,O=S(=O)(Nc1ccc(N2CCOCC2)cc1)c1cccs1,> 42 µM (inactive)
6,N[C@@H](Cc1ccc(O)c(I)c1)C(=O)O,> 42 µM (inactive)
7,O=C1CCC(=O)N1CCOP1(=O)COc2ccccc2OC1,> 42 µM (inactive)
8,Cc1ccc(C(=O)NCCCN2CCOCC2)cc1,> 42 µM (inactive)
9,Cc1cccc(NS(=O)(=O)c2ccc3[nH]c(=O)cc(C(=O)O)c3c2)c1,> 21 µM (inactive)
10,Fc1ccc(-c2cc(C(F)(F)F)nc(NCc3cccs3)n2)cc1,> 42 µM (inactive)
11,CCOC(=O)c1sc(N/N=C/c2ccc(N(C)C)cc2)nc1C,> 42 µM (inactive)
12,S=c1[nH]ccn1-c1cccc(Cl)c1,> 42 µM (inactive)
13,Cc1ccc(C(=O)NC(Cc2c[nH]c3ccccc23)C(=O)O)o1 (stereo not drawn),> 42 µM (inactive)
14,CC1(C)CC(=O)C(CC2CCCCC2=O)C(=O)C1 (stereo not drawn),> 42 µM (inactive)
15,O=C(Cn1cnc2ccccc2c1=O)c1ccc(OC(F)F)cc1,> 42 µM (inactive)
16,CCN(CC)c1ncnc2ccc(Br)cc12,> 42 µM (inactive)
17,Nc1cccc2c1C(=O)N(c1ccccc1)C2=O,> 42 µM (inactive)
18,CC(C)CCn1c(=O)c2ccccc2c2ccccc2c1=O,> 42 µM (inactive)
19,CCOC(=O)c1ccc(NC(=O)c2nc[nH]c2C(=O)N2CCc3ccccc3C2)cc1,> 42 µM (inactive)
20,Nc1nc(SCc2nc3scc(-c4cccs4)c3c(=O)[nH]2)n[nH]1,> 42 µM (inactive)
21,O=C(NC1CCCCC1)C(c1ccncc1)N(Cc1ccc2c(c1)OCO2)C(=O)C(F)(F)F (stereo not drawn),> 42 µM (inactive)
22,COC(=O)C1(Cc2ccc(O)cc2)OC(=O)C(O)=C1c1ccc(O)cc1 (stereo not drawn),> 42 µM (inactive)
23,Cc1ccc(S(=O)(=O)Nc2n[nH]nc2C(=O)NC2CCCCC2)cc1,> 42 µM (inactive)
24,COc1cc(C(=O)OCC(=O)NC(C)CCc2ccccc2)cc(OC)c1OC (stereo not drawn),> 42 µM (inactive)
25,COc1cccc(/C=N/NC(=O)CNC(=O)c2ccco2)c1O,> 42 µM (inactive)
